Laboratory results from patent US20260165953A1, “THE HIPPO PATHWAY AS A PHARMACOLOGIC TARGET FOR TREATING REFRACTIVE DISORDERS” (Centre for Eye and Vision Research Limited, priority 2022, published 2026).

How the values were obtained:
[1] = test system: form-deprivation myopia (FDM) in chicks; test: Unilateral form-deprivation myopia (FDM) in chicks, four intravitreal injections every alternate day, 7-day diffuser lens treatment; format: in vivo, White Leghorn chicks (Gallus gallus); conditions: for axial length, mean interocular difference ± SD / refractive error (myopic progression), mean interocular difference ± SD / increase in choroidal thickness compared to the vehicle group / choroidal thickness, mean interocular difference ± SD: after 7-day treatment; for axial length, mean interocular difference ± SD: vehicle 0.75±0.19 mm; for refractive error (myopic progression), mean interocular difference ± SD: vehicle −10.0±2.56 D; for choroidal thickness, mean interocular difference ± SD: vehicle 43.02±8.87 μm
Procedure: XMU-MP-1, known for its reversible and selective inhibition of MST1/2 (upstream to YAP/TAZ), leading to a significant increase in the activity of the Hippo pathway effector YAP, undergoes testing in a dose-dependent manner for its impact on form-deprivation myopia (FDM) in chicks.
White Leghorn chicks (Gallus gallus) from specific pathogen-free eggs (SPF, Jinan, China) are raised in standard cages with adequate food and water, maintaining a temperature of 25° C. and a 12 h:12 h light/dark cycle. The experimental period spans from postnatal 7 days (PN 7) to 14 days (PN 14). A unilateral FDM model is established using a published protocol, involving four intravitreal injections performed every alternate day. Following the first injection, diffuser lenses are attached to the right eye, with lenses covering only the XMU-MP-1 injected eye (unilateral FDM). XMU-MP- 1, dissolved in 10% DMSO with 90% Corn oil, is injected monocularly using a 0.3 mm (30 G)×8 mm needle into the vitreous through the skin, sclera, choroid, and retina close to the margin of the upper orbit. Contralateral eyes receive no lens treatment. Four concentrations of XMU-MP-1 (0.02, 0.2, 2, and 20 mmol/L) are selected for evaluation.
Animals are randomly assigned to five groups, encompassing the FDM with vehicle treatment group (vehicle group, 10% DMSO+90% Corn oil, n=14), FDM with 0.02 mmol/L XMU-MP-1 treatment group (XMU-MP-1, 0.02 mmol/L group, n=5), FDM with 0.2 mmol/L XMU-MP-1 treatment group (XMU-MP-1, 0.2 mmol/L group, n=5), FDM with 2 mmol/L XMU-MP-1 treatment group (XMU-MP-1, 2 mmol/L group, n=13), and FDM with 20 mmol/L XMU-MP-1 treatment group (XMU-MP-1, 20 mmol/L group, n=14).
Refractive errors are assessed using a streak retinoscope, and ocular parameters are measured with a high-frequency A-scan ultrasound system equipped with a 30 MHz transducer (Panametrics, Inc., Waltham, MA) before and after treatment. The spherical equivalent (S.E.) is derived from the refractive status (S.E.=spherical power+½ cylindrical power), and axial length is defined from the front of the cornea to the back of the vitreous chamber.
For statistical analysis, after the 7-day lens treatment period, interocular differences (the difference between the diffuser-treated eyes and the contralateral fellow eyes) are calculated for six ocular parameters (refractive error, anterior chamber depth, lens thickness, vitreous chamber depth (FIG. 4B), axial length, and choroidal thickness). Mean interocular differences±SD are presented, and the significance of the dose-effect is analyzed using ANOVA. Post hoc testing (Dunnett's method) is employed where appropriate, with significance levels denoted as follows: ns, not significant; *, P<0.05; **, P<0.01; ****, P<0.0001.

[2] = Signs of toxicity in animal models; format: in vivo
[3] = 2 mmol/L XMU-MP-1 intravitreal, n=13, P<0.001
[4] = 20 mmol/L XMU-MP-1 intravitreal, n=14, P<0.0001

CN1C(=O)c2sccc2N(C)c2nc(Nc3ccc(S(N)(=O)=O)cc3)ncc21 [XMU-MP-1]
axial length, mean interocular difference ± SD ([1]; 0.02 mmol/L XMU-MP-1 intravitreal, n=5): 0.73±0.13 mm | axial length, mean interocular difference ± SD ([1]; 0.2 mmol/L XMU-MP-1 intravitreal, n=5, P<0.001): 0.41±0.24 mm | refractive error (myopic progression), mean interocular difference ± SD ([1]; 0.2 mmol/L XMU-MP-1 intravitreal, n=5, P<0.01): −6.05±2.97 D | inhibition of myopia, based on refractive error and axial length data ([1]; 0.2 mmol/L group): about 40% | increase in choroidal thickness compared to the vehicle group ([1]; 2 mmol/L XMU-MP-1 intravitreal): about 50% | axial length, mean interocular difference ± SD [1, 3]: 0.36±0.20 mm | choroidal thickness, mean interocular difference ± SD [1, 3]: 22.07±15.13 μm | refractive error (myopic progression), mean interocular difference ± SD ([1]; 2 mmol/L XMU-MP-1 intravitreal, n=13, P<0.0001): −4.69±2.75 D | inhibition of myopia, based on refractive error and axial length data ([1]; 2 mmol/L group): about 53% | increase in choroidal thickness compared to the vehicle group ([1]; 20 mmol/L XMU-MP-1 intravitreal): ~70% | axial length, mean interocular difference ± SD [1, 4]: 0.27±0.22 mm | choroidal thickness, mean interocular difference ± SD [1, 4]: 12.83±17.96 μm | refractive error (myopic progression), mean interocular difference ± SD [1, 4]: −3.51±2.89 D | suppression of myopia development ([1]; highest dose tested (200 nmol)): about 65% | inhibition of lens-induced myopia ([1]; intravitreal injection): robustly inhibits lens-induced myopia | suppression of myopia progression, dose dependence ([1]; intravitreal injection, 0.02-20 mmol/L, ANOVA significant dose-response effect (p<0.0001)): can suppress myopia progression through intravitreal injection in a dose-dependent manner | signs of toxicity [2]: no discernible signs of toxicity
